Calls of active or inactive are those of the source. The rule behind the calls is not given here.
Experiments:
Glioblastoma stem cell [1] = assay: Inhibition of cell proliferation of human Glioblastoma stem cell assessed as reduction in viable cell number at 100 to 500 nM measured after 72 hrs by trypan blue exclusion assay; format: functional, cell-based; settings: dose 100-500 nM
Glioblastoma stem cell [2] = assay: Activation of AMPK in human Glioblastoma stem cell assessed as inhibition of cell growth at 500 nM measured after 48 hrs; format: cell-based
Glioblastoma stem cell [3] = assay: Activation of AMPK in human Glioblastoma stem cell assessed as increase in AMPK phosphorylation level at 500 nM measured after 48 hrs; format: cell-based
Glioblastoma cell line [4] = assay: Antitumor activity against human Glioblastoma stem cell xenografted in mouse model assessed as suppression of tumor growth by measuring luminescence signals at 10 mg/kg, ip administered 3 times in a week for and measured after 3 weeks by IVIS Lumina XR imaging system; format: functional, organism-based
Glioblastoma cell line [5] = assay: Antitumor activity against human Glioblastoma stem cell xenografted in mouse model assessed as improvement in event-free survival rate at 10 mg/kg, ip administered 3 times in a week for 40 days; format: functional, organism-based; settings: time 40.0 day
U-251 [6] = assay: Synergistic antiproliferative activity against human U-251 cells incubated for 6 days in presence of temozolomide by trypan blue staining based automated cell counter analysis; format: functional; settings: U-251, 144 h, time 6 day, read-out: ED50 (the source's name)
U-251 [7] = assay: Synergistic antiproliferative activity against human U-251 cells assessed as combination index at ED50 concentration incubated for 6 days in presence of temozolomide by trypan blue staining based automated cell counter analysis; format: functional; settings: time 6 day
U-251 [8] = assay: Synergistic antiproliferative activity against human U-251 cells assessed as combination index at ED75 concentration incubated for 6 days in presence of temozolomide by trypan blue staining based automated cell counter analysis; format: functional; settings: time 6 day
Glioblastoma stem cell [9] = assay: Activation of AMPK in human Glioblastoma stem cell assessed as decrease in intracellular ATP level at 500 nM measured after 48 hrs by celltiter-glo luminescent cell viability assay; format: cell-based; settings: filed as activator
Glioblastoma stem cell [10] = assay: Activation of AMPK in human Glioblastoma stem cell assessed as increase in intracellular AMP level at 500 nM measured after 48 hrs by AMP-Glo assay; format: cell-based; settings: filed as activator
Glioblastoma stem cell [11] = assay: Activation of AMPK in human Glioblastoma stem cell assessed as increase in AMP/ATP ratio at 500 nM measured after 48 hrs; format: cell-based; settings: filed as activator
SW48 = assay: Antitumor activity against human SW48 cells xenografted in CB-17 SCID mouse assessed as reduction in tumor size at 20 mg/kg administered daily and measured after 3 weeks by vernier caliper method (reference value: 997+/-180 mm3); format: functional
[12] = Toxicity in CB-17 SCID mouse xenografted with human SW48 cells assessed as drug tolerance at 20 mg/kg administered daily and measured after 3 weeks; format: organism-based; settings: in vivo, 504 h
[13] = Toxicity in CB-17 SCID mouse xenografted with human SW48 cells assessed as body weigh loss at 20 mg/kg administered daily and measured after 3 weeks; format: organism-based; settings: in vivo, 504 h
Glioblastoma stem cell [14] = assay: Inhibition of cell proliferation of human Glioblastoma stem cell assessed as reduction in viable cell number at 500 nM measured after 72 hrs by trypan blue exclusion assay; format: functional, cell-based
[15] = Antiproliferative activity against human Glioblastoma stem cell assessed as reduction in cell count at 100 to 500 nM measured after 72 hrs by trypan blue exclusion assay; format: functional; settings: dose 100-500 nM

In the case of COCCOCCOCCOCCCCCCCCCCCCNC(=O)c1csc(C)c1, the inhibition (Glioblastoma stem cell [1]) is reported as “inactive”, the Activity (Glioblastoma stem cell [2]) is reported as “inactive” and the Activity (Glioblastoma stem cell [3]) is reported as “inactive”.
For COCCOCCOCCOCCCCCCCCCCCCNC(=O)c1csc(Br)c1, the inhibition (Glioblastoma stem cell [1]) was “inactive”.
With CCCCCCCCCCOCCOCCOCCOCCCCCCCCCCCCNC(=O)c1ccsc1 the Activity (Glioblastoma cell line [4]) was “Active”, the Activity (Glioblastoma cell line [5]) was “Active” and the EC50 (U-251 [6]) was 43 nM. The inhibition (Glioblastoma stem cell [1]) was “Active”, the CI (U-251 [7]) was 0.325 and the CI (U-251 [8]) was 0.765. The Activity (Glioblastoma stem cell [2]; filed as activator) was “Active”, the Activity (Glioblastoma stem cell [3]; filed as activator) was “Active” and the Activity (Glioblastoma stem cell [9]) was “Active”. For the same compound, the Activity (Glioblastoma stem cell [10]) was “Active”, the Activity (Glioblastoma stem cell [11]) was “Active” and the Activity (SW48) was 352 mm3. For the same compound, the Activity [12] was “Non-Toxic” and the Activity [13] was “Non-Toxic”.
With CCCOCCOCCOCCOCCCCCCCCCCCCNC(=O)c1ccsc1 the inhibition (Glioblastoma stem cell [14]) was “Active” and the inhibition (Glioblastoma stem cell [1]) was “inactive”.
In the case of CCCCCCOCCOCCOCCOCCCCCCCCCCCCNC(=O)c1ccsc1, the inhibition (Glioblastoma stem cell [1]) is reported as “inactive”.
In the case of COCCOCCOCCOCCCCCCCCCCCCNC(=O)c1ccsc1C, the inhibition (Glioblastoma stem cell [1]) is reported as “inactive”.
Compound CCCCCCCCCCCC[C@@H](O)[C@@H]1CC[C@@H]([C@H](O)CCCCCCCCCCNC(=O)c2ccsc2)O1 has an EC50 (U-251 [6]) of 179 nM, an Activity [15] of 153000 and a CI (U-251 [7]) of 0.972.
For CCCCCCCCCOCCOCCOCCOCCCCCCCCCCCCNC(=O)c1ccsc1, the inhibition (Glioblastoma stem cell [1]) was “Active”, the Activity (Glioblastoma stem cell [2]; filed as activator) was “Active” and the Activity (Glioblastoma stem cell [3]; filed as activator) was “Active”.
With COCCOCCOCCOCCCCCCCCCCCCNC(=O)c1cscc1C the inhibition (Glioblastoma stem cell [1]) was “inactive”.
With O=C(NCCCCCCCCCCCCOCCOCCOCCO)c1ccsc1 the inhibition (Glioblastoma stem cell [1]) was “inactive”.
For COCCOCCOCCOCCCCCCCCCCCCNC(=O)c1cscc1Br, the inhibition (Glioblastoma stem cell [14]) was “Active”.
In the case of COCCOCCOCCOCCCCCCCCCCCCNC(=O)c1ccsc1, the inhibition (Glioblastoma stem cell [14]) is reported as “Active”, the Activity [15] is reported as 483000 and the inhibition (Glioblastoma stem cell [1]) is reported as “inactive”.

Source: ChEMBL document CHEMBL5338755, “Thiophene Carboxamide Analogs with Long Alkyl Chains Comprising Ethylene Glycol Units Inhibit Glioblastoma Cell Proliferation by Activating AMPK” (J Med Chem, 2023)
